Test results from ChEMBL document CHEMBL1201862, “PubChem BioAssay data set” (2004).
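96-well plates; 48 h exposure; 5 concentrations. Endpoints by linear interpolation between flanking doses. Not reached: highest tested concentration assigned. GI50 is the concentration that inhibits growth by half.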 Active and inactive are the calls of the source. Rule as the data show it: active = GI50 up to about 1.1 µM and inactive = higher.

What was measured:
Assay in all cases: DTP human tumour cell line panel, 48 h
[1] = tested on: 786-0
[2] = tested on: A498
[3] = tested on: A549
[4] = tested on: ACHN
[5] = tested on: CAKI-1
[6] = tested on: CCRF-CEM
[7] = tested on: COLO 205
[8] = tested on: DLD-1
[9] = tested on: DMS-114
[10] = tested on: DMS-273
[11] = tested on: HCC 2998
[12] = tested on: HCT-116
[13] = tested on: HCT-15
[14] = tested on: HOP-18
[15] = tested on: HOP-62
[16] = tested on: HOP-92
[17] = tested on: HT-29
[18] = tested on: IGROV-1
[19] = tested on: K562
[20] = tested on: KM-20L2
[21] = tested on: KM12
[22] = tested on: LOX IMVI
[23] = tested on: LXFL 529
[24] = tested on: M14
[25] = tested on: M19-MEL
[26] = tested on: MOLT-4
[27] = tested on: Malme-3M
[28] = tested on: NCI-H226
[29] = tested on: NCI-H23
[30] = tested on: NCI-H460
[31] = tested on: NCI-H522
[32] = tested on: OVCAR-3
[33] = tested on: OVCAR-4
[34] = tested on: OVCAR-5
[35] = tested on: OVCAR-8
[36] = tested on: RPMI-8226
[37] = tested on: RXF 393
[38] = tested on: SF-268
[39] = tested on: SF-295
[40] = tested on: SF-539
[41] = tested on: SK-MEL-28
[42] = tested on: SK-MEL-2
[43] = tested on: SK-MEL-5
[44] = tested on: SN12C
[45] = tested on: SNB-19
[46] = tested on: SNB-75
[47] = tested on: SNB-78
[48] = tested on: SR
[49] = tested on: SW-620
[50] = tested on: TK-10
[51] = tested on: U-251
[52] = tested on: UACC-257
[53] = tested on: UACC-62
[54] = tested on: UO-31
[55] = tested on: XF498
[56] = tested on: EKVX
[57] = tested on: HL-60
[58] = tested on: SK-OV-3

CN(C)CC1(C)CC/C(=C\c2ccc3c(c2)OCO3)C1=O (configuration not stated) was tested, and the GI50 [1] was > 100 µM (inactive), the GI50 [2] was > 100 µM (inactive) and the GI50 [3] was > 100 µM (inactive). For the same compound, the GI50 [4] was > 100 µM (inactive), the GI50 [5] was 6.58 µM (inactive) and the GI50 [6] was 59.4 µM (inactive). The GI50 [7] was > 100 µM (inactive), the GI50 [8] was > 100 µM (inactive) and the GI50 [9] was 57.4 µM (inactive). The GI50 [10] was > 100 µM (inactive), the GI50 [11] was > 100 µM (inactive) and the GI50 [12] was > 100 µM (inactive). The GI50 [13] was > 100 µM, the GI50 [14] was > 100 µM (inactive) and the GI50 [15] was > 100 µM (inactive). For the same compound, the GI50 [16] was > 100 µM (inactive), the GI50 [17] was > 100 µM (inactive) and the GI50 [18] was > 100 µM (inactive). For the same compound, the GI50 [19] was 53.6 µM (inactive), the GI50 [20] was 3.72 µM (inactive) and the GI50 [21] was > 100 µM (inactive). For the same compound, the GI50 [22] was > 100 µM (inactive), the GI50 [23] was > 100 µM (inactive) and the GI50 [24] was > 100 µM (inactive). For the same compound, the GI50 [25] was > 100 µM (inactive), the GI50 [26] was 96.4 µM (inactive) and the GI50 [27] was > 100 µM (inactive). The GI50 [28] was > 100 µM (inactive), the GI50 [29] was > 100 µM (inactive) and the GI50 [30] was > 100 µM (inactive). The GI50 [31] was 39.5 µM (inactive), the GI50 [32] was > 100 µM (inactive) and the GI50 [33] was > 100 µM (inactive). For the same compound, the GI50 [34] was > 100 µM (inactive), the GI50 [35] was > 100 µM (inactive) and the GI50 [36] was 27.5 µM (inactive). The GI50 [37] was > 100 µM (inactive), the GI50 [38] was > 100 µM (inactive) and the GI50 [39] was > 100 µM (inactive). The GI50 [40] was > 100 µM (inactive), the GI50 [41] was > 100 µM (inactive) and the GI50 [42] was > 100 µM (inactive). The GI50 [43] was > 100 µM (inactive), the GI50 [44] was > 100 µM (inactive) and the GI50 [45] was > 100 µM (inactive). The GI50 [46] was > 100 µM (inactive), the GI50 [47] was > 100 µM (inactive) and the GI50 [48] was 45.9 µM (inactive). The GI50 [49] was 92.9 µM (inactive), the GI50 [50] was > 100 µM (inactive) and the GI50 [51] was > 100 µM (inactive). The GI50 [52] was > 100 µM (inactive), the GI50 [53] was 67.3 µM (inactive) and the GI50 [54] was > 100 µM (inactive). For the same compound, the GI50 [55] was > 100 µM (inactive).

For NC(N)=NN/C(=C1/N=c2ccc([N+](=O)[O-])cc2=NC1=O)C(O)c1ccco1 (configuration not stated), the GI50 [1] was > 100 µM (inactive), the GI50 [2] was > 100 µM (inactive) and the GI50 [3] was > 100 µM (inactive). For the same compound, the GI50 [4] was > 100 µM (inactive), the GI50 [5] was > 100 µM (inactive) and the GI50 [6] was 67.1 µM (inactive). The GI50 [7] was > 100 µM (inactive), the GI50 [8] was > 100 µM (inactive) and the GI50 [9] was 27.5 µM (inactive). The GI50 [10] was > 100 µM (inactive), the GI50 [56] was > 100 µM (inactive) and the GI50 [11] was > 100 µM (inactive). The GI50 [12] was > 100 µM (inactive), the GI50 [13] was > 100 µM and the GI50 [57] was 35.9 µM (inactive). The GI50 [14] was > 100 µM (inactive), the GI50 [15] was > 100 µM (inactive) and the GI50 [16] was > 100 µM (inactive). For the same compound, the GI50 [17] was > 100 µM (inactive), the GI50 [18] was > 100 µM (inactive) and the GI50 [19] was 54.3 µM (inactive). The GI50 [20] was > 100 µM (inactive), the GI50 [21] was > 100 µM (inactive) and the GI50 [22] was > 100 µM (inactive). The GI50 [23] was 92.7 µM (inactive), the GI50 [24] was > 100 µM (inactive) and the GI50 [25] was > 100 µM (inactive). For the same compound, the GI50 [26] was > 100 µM (inactive), the GI50 [27] was > 100 µM (inactive) and the GI50 [28] was > 100 µM (inactive). For the same compound, the GI50 [29] was > 100 µM (inactive), the GI50 [30] was > 100 µM (inactive) and the GI50 [31] was 32.8 µM (inactive). For the same compound, the GI50 [33] was > 100 µM (inactive), the GI50 [34] was > 100 µM (inactive) and the GI50 [35] was > 100 µM (inactive). For the same compound, the GI50 [36] was 43.7 µM (inactive), the GI50 [37] was > 100 µM (inactive) and the GI50 [38] was > 100 µM (inactive). The GI50 [39] was > 100 µM (inactive), the GI50 [40] was > 100 µM (inactive) and the GI50 [41] was > 100 µM (inactive). For the same compound, the GI50 [42] was > 100 µM (inactive), the GI50 [43] was > 100 µM (inactive) and the GI50 [58] was > 100 µM (inactive). For the same compound, the GI50 [44] was > 100 µM (inactive), the GI50 [45] was > 100 µM (inactive) and the GI50 [46] was > 100 µM (inactive). The GI50 [47] was > 100 µM (inactive), the GI50 [48] was > 100 µM (inactive) and the GI50 [49] was > 100 µM (inactive). The GI50 [50] was > 100 µM (inactive), the GI50 [51] was > 100 µM (inactive) and the GI50 [52] was > 100 µM (inactive). The GI50 [53] was > 100 µM (inactive), the GI50 [54] was 64.7 µM (inactive) and the GI50 [55] was > 100 µM (inactive).
